{"source": "patent US20220110916A1", "about": "“Antioxidant and Use Thereof” (Bioradical Research Institute Corp., priority 2019, published 2022)", "system": "mesentery blood vessels of rats given lipopolysaccharide", "assay": "LPS-induced mesenteric bleeding and leukocyte rolling in rats", "format": "in vivo, rat", "description": "Administration of lipopolysaccharide to the mesentery vicinity blood vessels generates reactive oxygen species (ROS), causing vascular disorder and bleeding. Therefore, using the bleeding area as an indicator, it was examined whether the antioxidant of the present invention scavenges ROS in vivo.\nEight-week old or older female rats (Wistar, body weight: approximately 200 g, n=1) were anesthetized by subcutaneous administration of urethane (1.75 g/kg body weight). The rats were then opened and fixed on a fixing table in such a manner that the mesentery of the rats was observable. After the fixing, the fixing table was placed under a microscope (Nikon OPTIphoto, produced by Nikon Corporation) so that the mesentery could be observed. In addition, a catheter was placed in the groin vein of the rat.\n1 μg/ml of lipopolysaccharide ((LPS), produced by Sigma-Aldrich Co., Ltd.) derived from Pseudomonas aeruginosa (ATCC27316) was added dropwise once (20 μL, 20 ng/sight) and allowed to stand for 30 minutes. […] In the obtained photograph, the area of the region where bleeding occurred (bleeding area) was detected based on the number of pixels, and then the proportion of the area (bleeding area proportion) occupied per visual field was calculated. […]"}
{"compound": "CCN1N=C(C)/C(=C\\C=C\\c2c(C)nn(CC)c2O)C1=O", "note": "(racemic) [BisEp-C3, 2,4-dihydro-4-[3-(1-ethyl-5-hydroxy-3-methyl-1H-pyrazol-4-yl)-2-propen-1-ylidene]-2-ethyl-5-methyl-3H-pyrazol-3-one]", "values": [{"measurement": "bleeding area / bleeding area proportion", "setting": "rat mesentery, LPS 20 ng/sight, 1 mg/kg intravenously then 1 mg/kg per hour, up to 180 minutes, n=1, FIGS. 12 and 13", "value": "no bleeding was observed after the LPS administration"}, {"measurement": "rolling phenomena of leukocytes in the blood vessel", "setting": "rat, after LPS instillation, compared to the control", "value": "a large number of rolling phenomena of leukocytes were observed"}]}
